What was measured:
[1] = biological target: Ephrin type-B receptor 4 (Homo sapiens) (UniProt P54760); conditions: Compound concentration 1000.0 nM
[2] = biological target: Serine/threonine-protein kinase WNK1 (Homo sapiens) (UniProt Q9H4A3); conditions: Compound concentration 1000.0 nM
[3] = biological target: Serine/threonine-protein kinase WNK4 (Homo sapiens) (UniProt Q96J92); conditions: Compound concentration 1000.0 nM
[4] = biological target: Serine/threonine-protein kinase PAK 5 (Homo sapiens) (UniProt Q9P286); conditions: Compound concentration 1000.0 nM
[5] = biological target: Histamine H2 receptor (Homo sapiens) (UniProt P25021); conditions: Compound concentration 10.0 uM
[6] = biological target: Serine/threonine-protein kinase TBK1 (Homo sapiens) (UniProt Q9UHD2); conditions: Compound concentration 1000.0 nM
[7] = biological target: Serine/threonine-protein kinase 24 (Homo sapiens) (UniProt Q9Y6E0); conditions: Compound concentration 1000.0 nM
Chain of Serine/threonine-protein kinase 24 (Homo sapiens) (Q9Y6E0 whole entry, looked up): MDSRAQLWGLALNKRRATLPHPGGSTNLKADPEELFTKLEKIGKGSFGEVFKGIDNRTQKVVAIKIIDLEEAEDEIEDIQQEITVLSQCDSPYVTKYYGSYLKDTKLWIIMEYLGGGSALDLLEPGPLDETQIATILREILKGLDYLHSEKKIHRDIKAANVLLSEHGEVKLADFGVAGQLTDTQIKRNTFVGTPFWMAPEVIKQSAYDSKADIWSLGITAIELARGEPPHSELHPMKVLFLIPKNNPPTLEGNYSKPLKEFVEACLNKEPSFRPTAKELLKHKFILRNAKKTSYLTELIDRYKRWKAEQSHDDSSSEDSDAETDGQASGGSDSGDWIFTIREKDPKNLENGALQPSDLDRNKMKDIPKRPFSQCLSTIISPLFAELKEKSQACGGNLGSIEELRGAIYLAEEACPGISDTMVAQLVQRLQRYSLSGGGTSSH

[8] = biological target: Serine/threonine-protein kinase Nek1 (Homo sapiens) (UniProt Q96PY6); conditions: Compound concentration 1000.0 nM
Chain of Serine/threonine-protein kinase Nek1 (Homo sapiens) (Q96PY6 whole entry): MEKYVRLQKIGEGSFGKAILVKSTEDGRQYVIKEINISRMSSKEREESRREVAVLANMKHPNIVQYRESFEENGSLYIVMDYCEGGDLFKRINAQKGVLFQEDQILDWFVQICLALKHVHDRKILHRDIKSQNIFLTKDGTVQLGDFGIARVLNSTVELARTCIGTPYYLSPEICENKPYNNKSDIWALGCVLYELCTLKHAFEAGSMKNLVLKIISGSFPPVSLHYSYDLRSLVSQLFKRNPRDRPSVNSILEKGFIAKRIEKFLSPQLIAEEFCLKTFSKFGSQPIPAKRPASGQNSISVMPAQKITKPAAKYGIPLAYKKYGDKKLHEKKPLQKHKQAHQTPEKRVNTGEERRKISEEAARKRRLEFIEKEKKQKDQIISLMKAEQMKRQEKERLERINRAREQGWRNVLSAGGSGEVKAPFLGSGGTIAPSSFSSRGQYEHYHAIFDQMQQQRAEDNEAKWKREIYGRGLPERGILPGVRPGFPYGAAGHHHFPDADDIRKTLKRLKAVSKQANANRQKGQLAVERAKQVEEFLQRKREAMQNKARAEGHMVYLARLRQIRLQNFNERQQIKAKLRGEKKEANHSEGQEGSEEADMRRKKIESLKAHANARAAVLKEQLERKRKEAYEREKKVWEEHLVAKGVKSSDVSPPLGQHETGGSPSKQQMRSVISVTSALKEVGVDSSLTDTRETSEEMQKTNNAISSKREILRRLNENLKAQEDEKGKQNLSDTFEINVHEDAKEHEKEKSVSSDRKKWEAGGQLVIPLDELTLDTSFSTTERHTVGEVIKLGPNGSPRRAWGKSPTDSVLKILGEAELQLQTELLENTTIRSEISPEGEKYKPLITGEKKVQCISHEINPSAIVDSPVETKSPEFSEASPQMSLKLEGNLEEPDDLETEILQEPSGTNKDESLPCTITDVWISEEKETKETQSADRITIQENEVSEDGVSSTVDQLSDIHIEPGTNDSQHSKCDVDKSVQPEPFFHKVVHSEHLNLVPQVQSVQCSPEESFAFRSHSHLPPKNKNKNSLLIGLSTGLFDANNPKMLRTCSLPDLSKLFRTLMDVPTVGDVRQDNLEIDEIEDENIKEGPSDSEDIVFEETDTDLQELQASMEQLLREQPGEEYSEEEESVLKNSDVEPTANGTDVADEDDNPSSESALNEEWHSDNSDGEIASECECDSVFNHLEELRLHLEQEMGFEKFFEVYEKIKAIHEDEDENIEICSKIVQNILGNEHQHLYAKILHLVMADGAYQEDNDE

[9] = biological target: Serine/threonine-protein kinase RIO3 (Homo sapiens) (UniProt O14730); conditions: Compound concentration 1000.0 nM
[10] = biological target: Tyrosine-protein kinase Fes/Fps (Homo sapiens) (UniProt P07332); conditions: Compound concentration 1000.0 nM
[11] = biological target: Serine/threonine-protein kinase 33 (Homo sapiens) (UniProt Q9BYT3); conditions: Compound concentration 1000.0 nM
[12] = biological target: Ephrin type-B receptor 2 (Homo sapiens) (UniProt P29323); conditions: Compound concentration 1000.0 nM
Chain of Ephrin type-B receptor 2 (Homo sapiens) (P29323 whole entry): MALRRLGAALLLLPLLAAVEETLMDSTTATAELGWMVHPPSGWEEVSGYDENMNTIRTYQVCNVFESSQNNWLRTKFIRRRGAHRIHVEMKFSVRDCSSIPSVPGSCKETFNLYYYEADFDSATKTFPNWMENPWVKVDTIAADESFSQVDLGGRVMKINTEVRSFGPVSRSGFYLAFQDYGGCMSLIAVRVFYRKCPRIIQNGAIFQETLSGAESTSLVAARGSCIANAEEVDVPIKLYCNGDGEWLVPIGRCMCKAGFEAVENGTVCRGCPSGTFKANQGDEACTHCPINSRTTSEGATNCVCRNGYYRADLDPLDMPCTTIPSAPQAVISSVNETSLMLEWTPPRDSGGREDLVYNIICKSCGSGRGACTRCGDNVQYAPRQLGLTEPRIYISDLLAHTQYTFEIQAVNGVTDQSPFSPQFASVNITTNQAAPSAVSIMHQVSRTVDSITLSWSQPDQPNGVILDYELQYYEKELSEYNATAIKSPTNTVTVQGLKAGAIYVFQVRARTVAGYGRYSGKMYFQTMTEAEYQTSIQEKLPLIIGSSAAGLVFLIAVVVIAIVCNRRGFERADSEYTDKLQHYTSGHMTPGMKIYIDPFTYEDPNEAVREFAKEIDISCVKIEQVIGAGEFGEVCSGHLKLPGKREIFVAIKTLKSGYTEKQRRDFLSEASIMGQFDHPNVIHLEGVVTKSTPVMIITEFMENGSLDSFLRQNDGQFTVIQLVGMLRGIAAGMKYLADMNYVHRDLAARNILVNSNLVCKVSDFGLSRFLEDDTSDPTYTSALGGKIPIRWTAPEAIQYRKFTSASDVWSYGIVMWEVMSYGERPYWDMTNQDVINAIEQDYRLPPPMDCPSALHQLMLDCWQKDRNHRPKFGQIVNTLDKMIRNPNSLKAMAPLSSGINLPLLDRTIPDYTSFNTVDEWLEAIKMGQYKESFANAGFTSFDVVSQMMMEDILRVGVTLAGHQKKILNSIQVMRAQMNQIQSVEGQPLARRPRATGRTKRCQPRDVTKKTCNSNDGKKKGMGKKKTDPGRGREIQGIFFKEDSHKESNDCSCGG

[13] = biological target: Transient receptor potential cation channel subfamily M member 6 (Homo sapiens) (UniProt Q9BX84); conditions: Compound concentration 1000.0 nM
[14] = biological target: Serine/threonine-protein kinase SIK3 (Homo sapiens) (UniProt Q9Y2K2); conditions: Compound concentration 1000.0 nM
[15] = biological target: Phosphatidylinositol 4-phosphate 3-kinase C2 domain-containing subunit beta (Homo sapiens) (UniProt O00750); conditions: Compound concentration 1000.0 nM
[16] = biological target: Ribosomal protein S6 kinase alpha-5 (Homo sapiens) (UniProt O75582); conditions: Compound concentration 1000.0 nM
[17] = biological target: G protein-coupled receptor kinase 3 (Homo sapiens) (UniProt P35626); conditions: Compound concentration 1000.0 nM
[18] = test system: Tyrosine-protein kinase ABL1 (Homo sapiens), P00519 [H396P]; conditions: Compound concentration 1000.0 nM
[19] = biological target: Mitogen-activated protein kinase 14 (Homo sapiens) (UniProt Q16539); conditions: Compound concentration 1000.0 nM
[20] = biological target: Homeodomain-interacting protein kinase 1 (Homo sapiens) (UniProt Q86Z02); conditions: Compound concentration 1000.0 nM
[21] = biological target: Serine/threonine-protein kinase WNK3 (Homo sapiens) (UniProt Q9BYP7); conditions: Compound concentration 1000.0 nM
[22] = biological target: MAP kinase-activated protein kinase 5 (Homo sapiens) (UniProt Q8IW41); conditions: Compound concentration 1000.0 nM
[23] = biological target: Cyclin-dependent kinase-like 3 (Homo sapiens) (UniProt Q8IVW4); conditions: Compound concentration 1000.0 nM
[24] = biological target: T1, Muscarinic acetylcholine receptor M5 (Homo sapiens) (UniProt P08912); conditions: Compound concentration 10.0 uM
T1 sequence (whole entry): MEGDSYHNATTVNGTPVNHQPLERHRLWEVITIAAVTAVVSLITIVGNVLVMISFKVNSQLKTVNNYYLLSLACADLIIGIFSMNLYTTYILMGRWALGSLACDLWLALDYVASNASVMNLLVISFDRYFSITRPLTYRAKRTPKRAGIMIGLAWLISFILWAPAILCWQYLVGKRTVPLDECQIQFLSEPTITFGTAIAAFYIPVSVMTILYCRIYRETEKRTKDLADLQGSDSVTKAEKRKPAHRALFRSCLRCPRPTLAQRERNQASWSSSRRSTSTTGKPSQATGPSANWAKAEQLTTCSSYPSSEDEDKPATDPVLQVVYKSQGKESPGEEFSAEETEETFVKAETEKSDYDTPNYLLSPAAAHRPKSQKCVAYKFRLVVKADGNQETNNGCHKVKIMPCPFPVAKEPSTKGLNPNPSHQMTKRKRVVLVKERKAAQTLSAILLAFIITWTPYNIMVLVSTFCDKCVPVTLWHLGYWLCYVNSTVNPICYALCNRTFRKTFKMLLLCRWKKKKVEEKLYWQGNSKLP

[25] = biological target: Mitogen-activated protein kinase kinase kinase 12 (Homo sapiens) (UniProt Q12852); conditions: Compound concentration 1000.0 nM
[26] = biological target: Cyclin-dependent kinase-like 1 (Homo sapiens) (UniProt Q00532); conditions: Compound concentration 1000.0 nM
[27] = biological target: Serine/threonine-protein kinase Nek10 (Homo sapiens) (UniProt Q6ZWH5); conditions: Compound concentration 1000.0 nM
[28] = biological target: Mitogen-activated protein kinase kinase kinase kinase 3 (Homo sapiens) (UniProt Q8IVH8); conditions: Compound concentration 1000.0 nM
[29] = biological target: Serine/threonine-protein kinase PAK 4 (Homo sapiens) (UniProt O96013); conditions: Compound concentration 1000.0 nM
[30] = biological target: Serine/threonine-protein kinase SIK2 (Homo sapiens) (UniProt Q9H0K1); conditions: Compound concentration 1000.0 nM
[31] = biological target: RAC-beta serine/threonine-protein kinase (Homo sapiens) (UniProt P31751); conditions: Compound concentration 1000.0 nM
[32] = test system: Mast/stem cell growth factor receptor Kit (Homo sapiens), P10721 [D816H]; conditions: Compound concentration 1000.0 nM
[33] = biological target: Ribosomal protein S6 kinase beta-1 (Homo sapiens) (UniProt P23443); conditions: Compound concentration 1000.0 nM
[34] = biological target: LIM domain kinase 1 (Homo sapiens) (UniProt P53667); conditions: Compound concentration 1000.0 nM
[35] = biological target: Ribosomal protein S6 kinase alpha-3 (Homo sapiens) (UniProt P51812); conditions: Compound concentration 1000.0 nM
Chain of Ribosomal protein S6 kinase alpha-3 (Homo sapiens) (P51812 whole entry): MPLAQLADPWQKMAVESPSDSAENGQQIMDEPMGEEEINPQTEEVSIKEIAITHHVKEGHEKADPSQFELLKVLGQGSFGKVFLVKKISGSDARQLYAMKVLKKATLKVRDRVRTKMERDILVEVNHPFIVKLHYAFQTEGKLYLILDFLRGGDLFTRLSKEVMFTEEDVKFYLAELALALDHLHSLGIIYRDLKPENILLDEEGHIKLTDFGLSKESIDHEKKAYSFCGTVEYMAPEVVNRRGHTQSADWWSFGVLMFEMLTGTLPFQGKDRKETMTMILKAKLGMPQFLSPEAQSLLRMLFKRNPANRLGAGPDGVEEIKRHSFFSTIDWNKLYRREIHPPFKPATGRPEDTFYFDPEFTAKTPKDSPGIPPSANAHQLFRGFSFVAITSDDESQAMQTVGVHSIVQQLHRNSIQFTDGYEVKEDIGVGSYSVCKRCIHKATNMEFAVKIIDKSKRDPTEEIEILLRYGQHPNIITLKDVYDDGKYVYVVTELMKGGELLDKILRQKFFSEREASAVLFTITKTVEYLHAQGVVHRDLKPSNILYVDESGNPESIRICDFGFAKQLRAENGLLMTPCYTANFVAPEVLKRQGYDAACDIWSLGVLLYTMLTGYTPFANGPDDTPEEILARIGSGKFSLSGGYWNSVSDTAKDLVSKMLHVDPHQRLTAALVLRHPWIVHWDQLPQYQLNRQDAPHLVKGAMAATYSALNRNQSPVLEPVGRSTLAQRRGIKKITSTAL

[36] = biological target: Ribosomal protein S6 kinase alpha-3 (Homo sapiens) (UniProt P51812); conditions: Compound concentration 1000.0 nM; remark: listed apart in the source
[37] = biological target: Serine/threonine-protein kinase 25 (Homo sapiens) (UniProt O00506); conditions: Compound concentration 1000.0 nM
Chain of Serine/threonine-protein kinase 25 (Homo sapiens) (O00506 whole entry, looked up): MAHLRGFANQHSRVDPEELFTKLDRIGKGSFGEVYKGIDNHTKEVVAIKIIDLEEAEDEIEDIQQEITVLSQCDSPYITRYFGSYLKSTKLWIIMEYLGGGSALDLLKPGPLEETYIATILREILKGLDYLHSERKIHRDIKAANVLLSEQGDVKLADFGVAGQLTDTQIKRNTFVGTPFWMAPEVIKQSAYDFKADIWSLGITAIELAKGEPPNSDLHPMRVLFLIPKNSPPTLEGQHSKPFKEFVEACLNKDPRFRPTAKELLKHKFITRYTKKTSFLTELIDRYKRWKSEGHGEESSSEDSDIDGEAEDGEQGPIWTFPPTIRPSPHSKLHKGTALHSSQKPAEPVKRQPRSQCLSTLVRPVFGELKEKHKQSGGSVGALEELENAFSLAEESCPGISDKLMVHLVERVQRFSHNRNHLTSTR

[38] = biological target: Platelet-derived growth factor receptor alpha (Homo sapiens) (UniProt P16234); conditions: Compound concentration 1000.0 nM

Chain of Ephrin type-B receptor 4 (Homo sapiens) (P54760 whole entry): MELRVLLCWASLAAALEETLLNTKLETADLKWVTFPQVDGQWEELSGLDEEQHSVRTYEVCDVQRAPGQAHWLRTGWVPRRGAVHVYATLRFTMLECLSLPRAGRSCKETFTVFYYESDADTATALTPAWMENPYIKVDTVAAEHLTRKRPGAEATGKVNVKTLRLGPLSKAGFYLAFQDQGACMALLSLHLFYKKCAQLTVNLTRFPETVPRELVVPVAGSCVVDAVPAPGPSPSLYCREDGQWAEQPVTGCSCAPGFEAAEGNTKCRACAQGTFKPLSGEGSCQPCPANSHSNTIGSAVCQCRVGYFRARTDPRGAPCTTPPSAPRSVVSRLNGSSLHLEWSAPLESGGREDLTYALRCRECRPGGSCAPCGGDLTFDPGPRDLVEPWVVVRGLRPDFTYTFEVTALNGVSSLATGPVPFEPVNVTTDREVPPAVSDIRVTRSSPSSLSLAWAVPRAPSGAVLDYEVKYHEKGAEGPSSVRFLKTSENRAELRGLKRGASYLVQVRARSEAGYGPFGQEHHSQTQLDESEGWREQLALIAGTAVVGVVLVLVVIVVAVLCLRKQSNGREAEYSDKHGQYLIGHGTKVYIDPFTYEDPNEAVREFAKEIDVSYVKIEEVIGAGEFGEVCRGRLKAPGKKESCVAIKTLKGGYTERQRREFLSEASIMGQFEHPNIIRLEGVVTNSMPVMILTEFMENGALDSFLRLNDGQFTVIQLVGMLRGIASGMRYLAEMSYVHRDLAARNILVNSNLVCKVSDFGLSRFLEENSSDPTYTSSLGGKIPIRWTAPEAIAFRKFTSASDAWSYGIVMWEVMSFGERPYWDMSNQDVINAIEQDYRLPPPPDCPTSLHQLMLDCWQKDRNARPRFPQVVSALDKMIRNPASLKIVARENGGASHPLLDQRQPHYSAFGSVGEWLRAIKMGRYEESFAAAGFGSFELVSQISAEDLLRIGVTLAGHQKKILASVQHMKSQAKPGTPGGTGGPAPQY

N#CC1(c2ccccn2)CCN(Cc2cc(C(=O)N3CCCC3)c(=O)n3ccccc23)CC1
inactive: residual activity [1] 100% | residual activity [2] 100% | residual activity [3] 81% | residual activity [4] 93% | inhibition [5] 3.1% | residual activity [6] 99% | residual activity [7] 87% | residual activity [8] 91% | residual activity [9] 90% | residual activity [10] 99% | residual activity [11] 62% | residual activity [12] 77% | residual activity [13] 80% | residual activity [14] 100% | residual activity [15] 100% | residual activity [16] 90% | residual activity [17] 77% | residual activity [18] 100% | residual activity [19] 86% | residual activity [20] 77% | residual activity [21] 94% | residual activity [22] 100% | residual activity [23] 78% | inhibition [24] 0.56% | residual activity [25] 100% | residual activity [26] 78% | residual activity [27] 96% | residual activity [28] 81% | residual activity [29] 100% | residual activity [30] 100% | residual activity [31] 84% | residual activity [32] 100% | residual activity [34] 98% | residual activity [35] 100% | residual activity [36] 60% | residual activity [37] 97% | residual activity [38] 97%
active: residual activity [33] 34%

N#CC1(c2ccccn2)CCN(Cc2cc(C(=O)O)c(=O)n3ccccc23)CC1 [MSD-M1PAM]
inactive: residual activity [1] 83% | residual activity [2] 97% | residual activity [3] 75% | residual activity [4] 96% | inhibition [5] 11.7% | residual activity [6] 98% | residual activity [7] 100% | residual activity [8] 100% | residual activity [9] 96% | residual activity [10] 99% | residual activity [11] 56% | residual activity [12] 100% | residual activity [13] 100% | residual activity [14] 97% | residual activity [15] 97% | residual activity [16] 83% | residual activity [17] 95% | residual activity [18] 91% | residual activity [19] 100% | residual activity [20] 100% | residual activity [21] 99% | residual activity [22] 56% | residual activity [23] 89% | inhibition [24] 4.74% | residual activity [25] 93% | residual activity [26] 100% | residual activity [27] 93% | residual activity [28] 80% | residual activity [29] 100% | residual activity [30] 100% | residual activity [31] 73% | residual activity [32] 85% | residual activity [33] 96% | residual activity [34] 100% | residual activity [35] 100% | residual activity [36] 81% | residual activity [37] 100% | residual activity [38] 90%
